From PubChem BioAssay AID1963427 (Molecular Pharmacology Branch, DTP, NCI, 2024)
Where “and” joins values, the source holds several entries; their conditions need not be identical. Identical values can stand only once.

Test system: 317291-083-R-J1-PDC complex spheroid growth
Assay: Anticancer human tumor 317291-083-R-J1-PDC patient-derived soft tissue sarcoma cell line growth inhibition [Asc]
Details: for IC50: curve of first compound; for viability, T/C: stronger effect = lower value
Method in brief: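 Tumor cells were grown as multicellular spheroids with stromal HUVEC and mesenchymal stem cells and treated singly or in combination. Concentrations fell in half-log steps from the clinical Cmax, or from 10 microM where none was known.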

[1] = second compound 0.00316 µM, first compound 0.0316 µM
[2] = second compound 0.00316 µM, first compound 0.1 µM
[3] = second compound 0.01 µM, first compound 0.0316 µM
[4] = second compound 0.01 µM, first compound 0.1 µM
[5] = second compound 0.0316 µM, first compound 0.0316 µM
[6] = second compound 0.0316 µM, first compound 0.1 µM
[7] = second compound 0.1 µM, first compound 0.0316 µM
[8] = second compound 0.1 µM, first compound 0.1 µM
[9] = second compound 0.316 µM, first compound 0.0316 µM
[10] = second compound 0.316 µM, first compound 0.1 µM
[11] = second compound 1 µM, first compound 0.0316 µM
[12] = second compound 1 µM, first compound 0.1 µM
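Also: compound exposure lasted seven days after spheroids formed for three days.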
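For viability, T/C in this document: 100% = DMSO vehicle control wells.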

C=CC(=O)N1CCN(c2nc(=O)n(-c3c(C)ccnc3C(C)C)c3nc(-c4c(O)cccc4F)c(F)cc23)C(C)C1 (stereo not given) + CNC(C)C(=O)NC1CN(S(=O)(=O)c2cccc(S(=O)(=O)N3CCC4CCC(C(=O)NC(c5ccccc5)c5ccccc5)N4C(=O)C(NC(=O)C(C)NC)C3)c2)CCC2CCC(C(=O)NC(c3ccccc3)c3ccccc3)N2C1=O
IC50 (second compound 0.00316 µM): 9720 nM
IC50 (second compound 0.01 µM): > 10000 nM
IC50 (second compound 0.0316 µM): 5560 nM
IC50 (second compound 0.1 µM): 4400 nM
IC50 (second compound 0.316 µM): 1090 nM
IC50 (second compound 1 µM): < 31.6 nM
viability, T/C [1]: 96%
viability, T/C [2]: 100%
viability, T/C (second compound 0.00316 µM, first compound 0.316 µM): 85.2%
viability, T/C (second compound 0.00316 µM, first compound 1 µM): 91.3%
viability, T/C (second compound 0.00316 µM, first compound 3.16 µM): 93.5%
viability, T/C (second compound 0.00316 µM, first compound 10 µM): 48.9%
viability, T/C [3]: 92.9%
viability, T/C [4]: 77.4%
viability, T/C (second compound 0.01 µM, first compound 0.316 µM): 83.3%
viability, T/C (second compound 0.01 µM, first compound 1 µM): 97.1%
viability, T/C (second compound 0.01 µM, first compound 3.16 µM): 62.5%
viability, T/C (second compound 0.01 µM, first compound 10 µM): 56.9%
viability, T/C [5]: 93.1%
viability, T/C [6]: 70.1%
viability, T/C (second compound 0.0316 µM, first compound 0.316 µM): 77.4%
viability, T/C (second compound 0.0316 µM, first compound 1 µM): 73.7%
viability, T/C (second compound 0.0316 µM, first compound 3.16 µM): 71.7%
viability, T/C (second compound 0.0316 µM, first compound 10 µM): 28.8%
viability, T/C [7]: 68.7%
viability, T/C [8]: 54.2%
viability, T/C (second compound 0.1 µM, first compound 0.316 µM): 59.9%
viability, T/C (second compound 0.1 µM, first compound 1 µM): 62.8%
viability, T/C (second compound 0.1 µM, first compound 3.16 µM): 57.6%
viability, T/C (second compound 0.1 µM, first compound 10 µM): 30.4%
viability, T/C [9]: 57.2%
viability, T/C [10]: 42.9%
viability, T/C (second compound 0.316 µM, first compound 0.316 µM): 62.1%
viability, T/C (second compound 0.316 µM, first compound 1 µM): 48.9%
viability, T/C (second compound 0.316 µM, first compound 3.16 µM): 39%
viability, T/C (second compound 0.316 µM, first compound 10 µM): 23.5%
viability, T/C [11]: 49%
viability, T/C [12]: 28.6%
viability, T/C (second compound 1 µM, first compound 0.316 µM): 32.2%
viability, T/C (second compound 1 µM, first compound 1 µM): 35%
viability, T/C (second compound 1 µM, first compound 3.16 µM): 30.6%
viability, T/C (second compound 1 µM, first compound 10 µM): 13.5%

Cn1ncnc1[C@H]1c2n[nH]c(=O)c3cc(F)cc(c23)N[C@@H]1c1ccc(F)cc1 + CNC(C)C(=O)NC1CN(S(=O)(=O)c2cccc(S(=O)(=O)N3CCC4CCC(C(=O)NC(c5ccccc5)c5ccccc5)N4C(=O)C(NC(=O)C(C)NC)C3)c2)CCC2CCC(C(=O)NC(c3ccccc3)c3ccccc3)N2C1=O
IC50 (second compound 0.00316 µM): < 0.316 nM
IC50 (second compound 0.01 µM): < 0.316 nM
IC50 (second compound 0.0316 µM): 21.8 nM
IC50 (second compound 0.1 µM): 17.2 nM
IC50 (second compound 0.316 µM): 1.01 nM
IC50 (second compound 1 µM): < 0.316 nM
viability, T/C (second compound 0.00316 µM, first compound 0.000316 µM): 3.79%
viability, T/C (second compound 0.00316 µM, first compound 0.001 µM): 4.39%
viability, T/C (second compound 0.00316 µM, first compound 0.00316 µM): 4.26%
viability, T/C (second compound 0.00316 µM, first compound 0.01 µM): 4.44%
viability, T/C [1]: 4.58%
viability, T/C [2]: 4.39%
viability, T/C (second compound 0.01 µM, first compound 0.000316 µM): 45.2%
viability, T/C (second compound 0.01 µM, first compound 0.001 µM): 37.4%
viability, T/C (second compound 0.01 µM, first compound 0.00316 µM): 46.9%
viability, T/C (second compound 0.01 µM, first compound 0.01 µM): 29.3%
viability, T/C [3]: 28.5%
viability, T/C [4]: 34.5%
viability, T/C (second compound 0.0316 µM, first compound 0.000316 µM): 79%
viability, T/C (second compound 0.0316 µM, first compound 0.001 µM): 86%
viability, T/C (second compound 0.0316 µM, first compound 0.00316 µM): 82.5%
viability, T/C (second compound 0.0316 µM, first compound 0.01 µM): 57%
viability, T/C [5]: 40.3%
viability, T/C [6]: 52.7%
viability, T/C (second compound 0.1 µM, first compound 0.000316 µM): 95.4%
viability, T/C (second compound 0.1 µM, first compound 0.001 µM): 76.5%
viability, T/C (second compound 0.1 µM, first compound 0.00316 µM): 60.8%
viability, T/C (second compound 0.1 µM, first compound 0.01 µM): 56.6%
viability, T/C [7]: 39.3%
viability, T/C [8]: 50.4%
viability, T/C (second compound 0.316 µM, first compound 0.000316 µM): 58.8%
viability, T/C (second compound 0.316 µM, first compound 0.001 µM): 55.7%
viability, T/C (second compound 0.316 µM, first compound 0.00316 µM): 36.8%
viability, T/C (second compound 0.316 µM, first compound 0.01 µM): 41.6%
viability, T/C [9]: 28.9%
viability, T/C [10]: 35.9%
viability, T/C (second compound 1 µM, first compound 0.000316 µM): 34%
viability, T/C (second compound 1 µM, first compound 0.001 µM): 37.4%
viability, T/C (second compound 1 µM, first compound 0.00316 µM): 28.1%
viability, T/C (second compound 1 µM, first compound 0.01 µM): 30.9%
viability, T/C [11]: 29.2%
viability, T/C [12]: 22.3%

NC(=O)C(=Cn1cnc(-c2cc(C(F)(F)F)cc(C(F)(F)F)c2)n1)c1cncnc1
viability, T/C (compound 0.000949 µM): 92.5% and 89.6% and 23.9%
viability, T/C (compound 0.003 µM): 88.1% and 74.5% and 25.9%
viability, T/C (compound 0.00949 µM): 92.4% and 72% and 36.3%
viability, T/C (compound 0.03 µM): 45.8% and 39.8% and 16%
viability, T/C (compound 0.0949 µM): 6.6% and 6.29% and 7.34%
viability, T/C (compound 0.3 µM): 3.75% and 1.91% and 3.91%
